Laboratory results reported in article PMC7794297.

Tests used:
[1] = Spermine-templated DCL of building blocks 1-4; conditions: spermine DCL of 1-4
Experimental: Building blocks 2 and 3 equipped with carboxylate moieties to establish interactions with the protonated amine groups of the spermine were allowed to equilibrate at pH 7.8 and 6 °C (Fig. 8a). As expected in our control experiment, the major component in the absence of spermine was the linear tetramer (2)2(3)2. After the addition of spermine, the linear tetramer “decomposed” in order to form mainly the cyclic tetramer of (2)4, and the (3)2 dimer (Fig. 8a). As it was reported, several studies determined that the spermine was threaded through the macrocycle fixing the configuration to a highly symmetric stereoisomer of (2)4[36]. […] The precise composition of the DCL (with and without spermine), was assessed by measuring the relative peak area (RPA). Indeed, the normalized change of RPA was used to quantify the spermine influence in the outcome (Supplementary Fig. 42)[46]. The same template (spermine) was tested in our reference DCL of four building blocks (1–4) in the absence and presence of Secox (Fig. 8b). […] Additionally, two different templates were tested to confirm the absence of conflict between selenocystine and the templating effect. Spermidine and NADPH were introduced in our 4 building blocks DCL (1–4) in the absence and presence of Secox, leading to the amplification of different species and getting the same results as the non-catalyzed DCLs (Supplementary Figs. 44, 45, Supplementary Tables 7–10, and Supplementary Methods).
The mixture was stabilized in 96 h. […] The mixture was stabilized after 24 h. […] It was stabilized in 24 h. […] DCL was equilibrated in 96 h. DCLs were performed without stirring at 6 °C and analyzed by HPLC-MS.

[2] = Spermidine-templated DCL of building blocks 1-4;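 also: Spermidine-templated dynamic combinatorial library, normalized change of RPA compared between Secox-free and Secox-containing libraries, DCC runs done in triplicate, values given as mean ± SD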
[3] = target: bovine serum albumin (BSA) (Bos taurus, UniProt P02769); assay: BSA-directed DCL of building blocks 1-4; set-up: purchased Roche; key to NC of RPA: normalized change of relative peak area (RPA) vs blank DCL; conditions: blank vs BSA-DCL; BSA 57 µM, Secox 5% mol, 24 h
Chain of bovine serum albumin (BSA) (P02769 25-607): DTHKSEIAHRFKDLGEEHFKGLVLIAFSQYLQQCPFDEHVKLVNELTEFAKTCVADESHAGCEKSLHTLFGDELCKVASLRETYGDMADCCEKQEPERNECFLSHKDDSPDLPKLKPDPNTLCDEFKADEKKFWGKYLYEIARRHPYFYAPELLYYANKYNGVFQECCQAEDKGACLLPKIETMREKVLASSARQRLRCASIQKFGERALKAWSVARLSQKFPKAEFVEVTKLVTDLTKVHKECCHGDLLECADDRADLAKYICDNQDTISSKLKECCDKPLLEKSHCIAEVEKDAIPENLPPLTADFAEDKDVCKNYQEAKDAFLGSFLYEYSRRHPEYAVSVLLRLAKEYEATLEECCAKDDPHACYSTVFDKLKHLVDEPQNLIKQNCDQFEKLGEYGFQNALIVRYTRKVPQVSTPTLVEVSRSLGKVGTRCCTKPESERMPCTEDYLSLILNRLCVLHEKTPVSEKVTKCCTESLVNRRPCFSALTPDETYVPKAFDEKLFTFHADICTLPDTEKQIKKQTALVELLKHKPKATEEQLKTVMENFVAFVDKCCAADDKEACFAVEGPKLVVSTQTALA

[4] = NADPH-templated DCL of building blocks 1-4;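 also: values are means ± SD of DCC experiments run in triplicate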
glucose oxidase (GOx) = glucose oxidase (GOx) (Aspergillus niger, UniProt P13006); assay: Glucose oxidase-directed DCL of building blocks 1-4; set-up: purchased Sigma Aldrich; conditions: blank vs GOx template DCL; GOx 57 μM, Secox 5% mol, 24 h
Chain of glucose oxidase (GOx) (P13006 17-605): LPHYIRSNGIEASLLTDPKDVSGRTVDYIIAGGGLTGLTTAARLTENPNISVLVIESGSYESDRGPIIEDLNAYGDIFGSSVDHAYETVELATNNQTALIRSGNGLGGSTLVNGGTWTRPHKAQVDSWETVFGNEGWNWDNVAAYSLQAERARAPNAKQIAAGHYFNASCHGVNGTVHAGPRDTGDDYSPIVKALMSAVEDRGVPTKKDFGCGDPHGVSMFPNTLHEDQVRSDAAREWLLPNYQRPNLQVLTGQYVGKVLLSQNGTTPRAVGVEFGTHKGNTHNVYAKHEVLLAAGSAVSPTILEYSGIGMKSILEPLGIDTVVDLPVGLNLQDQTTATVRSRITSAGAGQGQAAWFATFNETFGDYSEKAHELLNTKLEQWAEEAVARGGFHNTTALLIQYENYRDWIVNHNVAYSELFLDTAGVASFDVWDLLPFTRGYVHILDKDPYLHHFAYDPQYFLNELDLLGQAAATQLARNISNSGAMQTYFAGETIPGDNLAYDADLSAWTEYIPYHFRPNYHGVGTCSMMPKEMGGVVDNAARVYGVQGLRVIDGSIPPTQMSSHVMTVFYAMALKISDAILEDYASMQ
Experimental: The equilibration of the DCL was completed after 24 h (Fig. 9) and the oligomers were identified by HPLC-MS (Supplementary Figs. 4–20). The precise composition of the DCL (with and without GOx), was assessed by measuring the relative peak area (RPA). The normalized change of RPA was used to quantify the protein influence in the final DCL showing the amplification of the dimer of compound 4, that is (4)2 (Fig. 9b). Control experiments were set up to verify that the amplification of the dimer was not due to unspecific binding. Firstly the GOx was replaced by the bovine serum albumin (BSA). A stability study of BSA under the DCL conditions was performed using a fluorescence technique confirming the BSA stability in the DCL experiment (Supplementary Fig. 48)[50].
The DCL was stabilized for 24 h at 6 °C. Then, GOx was removed by ultracentrifugation through an Amicon ultra-filter (100 KDa). HPLC analysis was performed.

Structure (SMILES)	Normalized Change of RPA (NC) ([1]; 0% Secox)	Normalized Change of RPA (NC) ([1]; 5% Secox)	Normalized Change of RPA (NC) ([2]; 0% Secox)	Normalized Change of RPA (NC) ([2]; 5% Secox)	NC of RPA [3]	Normalized Change of RPA (NC) ([4]; 0% Secox)	Normalized Change of RPA (NC) ([4]; 5% Secox)	NC of RPA (glucose oxidase (GOx))
O=C(O)c1cccc(SSc2cc(SSc3cc(SSc4cccc(C(=O)O)c4)cc(C(=O)O)c3)cc(C(=O)O)c2)c1 [(1)2(3)2]	0,46	0,38	0,34	0,27	0,63	-0,06	-0,06	-0,36
O=C(O)c1cc2cc(c1)SSc1cc(cc(C(=O)O)c1)SSc1cc(cc(C(=O)O)c1)SS2 [(1)3]	-0,65	-0,66	-0,42	-0,44	-0,19	-0,70	-0,68	-0,21
O=C(O)c1cc2cc(c1)SSc1cc(cc(C(=O)O)c1)SSc1cc(cc(C(=O)O)c1)SSc1cc(cc(C(=O)O)c1)SS2 [(1)4]	-0,14	-0,12	-0,47	-0,43	0,14	-0,84	-0,88	-0,86
O=C(O)c1cc(SSc2ccccc2)cc(SSc2cc(C(=O)O)c(SSc3ccccc3)cc2C(=O)O)c1 [(1)(2)(4)2]	-1,00	-1,00	-1,00	-1,00	2,84	-1,00	-1,00	-1,00
O=C(O)c1cccc(SSc2cc(SSc3cccc(C(=O)O)c3)cc(C(=O)O)c2)c1 [(1)(3)2]	1,19	1,25	0,83	0,86	-0,75	1,24	1,23	-0,46
O=C(O)c1cc(SSc2ccccc2)cc(SSc2ccccc2)c1 [(1)(4)2]	–	–	–	–	45,89	–	–	–
O=C(O)c1cccc(SSc2cc(C(=O)O)c(SSc3cc(C(=O)O)c(SSc4cccc(C(=O)O)c4)cc3C(=O)O)cc2C(=O)O)c1 [(2)2(3)2]	-1,00	-1,00	-1,00	-1,00	-1,00	-0,69	-0,64	-1,00
O=C(O)c1cc(SSc2cc(C(=O)O)c(SSc3ccccc3)cc2C(=O)O)c(C(=O)O)cc1SSc1ccccc1 [(2)2(4)2]	-1,00	-1,00	-1,00	-1,00	0,31	0,13	0,11	-1,00
O=C(O)c1cccc(SSc2cc(C(=O)O)c(SSc3cccc(C(=O)O)c3)cc2C(=O)O)c1 [(2)(3)2]	-0,26	-0,28	-0,11	-0,19	-1,00	2,41	2,37	0,72
O=C(O)c1cccc(SSc2cc(C(=O)O)c(SSc3ccccc3)cc2C(=O)O)c1 [(2)(3)(4)]	-0,75	-0,74	-0,64	-0,65	0,95	-0,12	-0,12	-0,32
